Measured values published in patent US20010049357A1, “Use of Hsp27 as an anti-inflammatory agent” (priority 1999, published 2001).
Where two headings read alike, the source gives them in different places.

Assays:
human MØ [1] = test: IL-10 production by human MØ (ELISA of culture supernates); type: cell-based
human MØ [2] = test: TNFα production by human MØ (ELISA of culture supernates); type: cell-based
Normal control monocytes = type: cell-based, human
[3] = system: IL-10 mRNA in human monocytes; test: RNAse protection assay of IL-10 mRNA in human monocytes; type: cell-based
p38 MAPK = test: Immunoblot for activation (phosphorylation) of p38 MAPK in human MØ; type: cell-based; conditions: after addition of Hsp 27 2 μg/ml
Experimental: (§1) Monocytes (1.5×10^6 cells) were cultured in serum free medium for 2 hrs and then stimulated with Hsp 27 (2 μg/ml) for different time periods (1 min to 3 hrs). Western blot analysis was performed, essentially as described previously (29). Briefly, cells were lysed using a buffer consisting of 1% Nonidet P-40, 50 mM HEPES (pH 7.2), 100 mM NaCl, 2 mM EDTA, 1 mM pyrophosphate, 2 mM Na3VO4, 10 mM NaF, 1 mM PMSF, 10 μg/ml leupeptin and 10 μg/ml aprotinin. Postnuclear supernates were harvested after centrifugation of the lysate for 15 min at 14,000 g at 4° C. Equal amounts of postnuclear lysates were boiled for 5 min in the presence of SDS sample buffer (reducing) and subjected to SDS-12% PAGE and then transferred to nitrocellulose membrane (Millipore Corp, Bedford, Mass.) in transfer buffer [25 mM Tris, 192 mM glycine, pH 8.3, 20% (V/V) methanol]. Membranes were first rinsed in TTBS (TBS with 0.1% Tween 20) and then blocked for 1 hr at room temperature in TTBS-5% W/V nonfat dry milk. The membrane was then incubated overnight at 4° C. with antiphospho-p38 MAPK antibody (rabbit polyclonal; New England Biolab) (1:1000 dilution in TTBS-1% BSA). Antibody-antigen complexes were detected with the aid of HRP-conjugated anti-rabbit secondary antibody (1:2000 dilution) (New England Biolab) followed by detection of the bands with ECL reagent (NEN Life Science Products). […]
(§2) To assess the activation (phosphorylation) of three different mitogen-activated protein kinases (MAPK)—p38, p44/42 (Erk 1/2) and p46/54 (SAPK/JNK-1/2) after Hsp 27 addition, we stimulated human MØ at different time points and measured activated p38, Erk 1/2 and JNK 1/2 using the respective antibodies against the phosphorylated forms of the MAPKs. […]

p44/42 (Erk 1/2) = test: Immunoblot for activation (phosphorylation) of Erk 1/2 in human MØ; type: cell-based; conditions: after addition of Hsp 27 2 μg/ml
Experimental: Monocytes (1.5×10^6 cells) were cultured in serum free medium for 2 hrs and then stimulated with Hsp 27 (2 μg/ml) for different time periods (1 min to 3 hrs). Western blot analysis was performed, essentially as described previously (29). Briefly, cells were lysed using a buffer consisting of 1% Nonidet P-40, 50 mM HEPES (pH 7.2), 100 mM NaCl, 2 mM EDTA, 1 mM pyrophosphate, 2 mM Na3VO4, 10 mM NaF, 1 mM PMSF, 10 μg/ml leupeptin and 10 μg/ml aprotinin. Postnuclear supernates were harvested after centrifugation of the lysate for 15 min at 14,000 g at 4° C. […] Antibody-antigen complexes were detected with the aid of HRP-conjugated anti-rabbit secondary antibody (1:2000 dilution) (New England Biolab) followed by detection of the bands with ECL reagent (NEN Life Science Products). […]
as §2

p46/54 (SAPK/JNK-1/2) = test: Immunoblot for activation (phosphorylation) of SAPK/JNK in human MØ; type: cell-based
Experimental: as §1, §2

MAPKAPKinase-2 = type: cell-based, human
MØ = MØ conversion (differentiation) into immature dendritic cells by IL-4 plus GM-CSF; type: cell-based; conditions: Hsp27 added to MØ cultures at the initiation of conversion
Source text: In a preferred method for obtaining dendritic cells in vitro, isolated MØ are are first stimulated to undergo conversion (differentiation) into immature dendritic cells, and then stimulated to mature into fully active or competent dendritic cells. Conversion can be stimulated or promoted in vitro by any effective treatment. For example, conversion can be promoted by treating the MØ with an effective amount of IL-4 and an effective amount of GM-CSF, in accordance with conventional techniques. Typically, the IL-4 and GM-CSF treatment is for approximately 3-4 days. One indication of conversion is expression of CD1a. For guidance concerning in vitro conversion of MØ to immature dendritic cells, see, e.g., Chapius et al., 1997, Eur. J. Immunol. 27:431-441.
(§3) Hsp27 added to MØ cultures at the initiation of conversion inhibited differentiation of MØ to dendritic cells mediated or promoted by the combination of IL-4 plus GM-CSF.

immature dendritic cells = test: Maturation of immature dendritic cells (CD83 expression); type: cell-based
Experimental: Preferably, the MØ are not brought into contact with Hsp27 before their conversion into immature dendritic cells, because Hsp27 inhibits the conversion. After conversion, however, Hsp27 acts as a potent promoter of maturation by the immature dendritic cells. […] Dendritic cell maturation is detectable as early as 24 hours after initiation of Hsp27 treatment. Preferably, however, Hsp27-induced maturation is allowed to proceed for 48 to 72 hours. One useful indication of dendritic cell maturation is expression of CD83.
as §3

[4] = after addition of Hsp 27 2 μg/ml

Compound: heat shock protein-27 [Hsp 27]
- IL-10(pg/10^6 cells/ml) x ± SEM (human MØ [1]): 5267 ± 610 pg/10^6 cells/ml
- MØ IL-10 production (human MØ [1]): approximately 3400 pg/ml
- increase in IL-10 as compared to SEB+MDP (human MØ [1]): approximately 3 fold
- increase in IL-10 relative to SEB+MDP (human MØ [1]): 2.5-3.5
- optimum concentration for Hsp 27 induced MØ IL-10 production (human MØ [1]; dose-dependent, FIG. 1B): 1 to 5 µg/mL
- MØ TNFα production (human MØ [2]; 16-18 hrs): 483 ± 74 pg/mL
- IL-12(pg/10^6 cells/ml) x ± SEM (Normal control monocytes): 3428 ± 1102 pg/10^6 cells/ml
- increase in IL-12 as compared to SEB+MDP (Normal control monocytes): approximately 3 fold
- increase in IL-12 relative to SEB+MDP (Normal control monocytes): 2.5-3.5
- IL-10 mRNA levels relative to control MDP+SEB induced levels [3]: 3.2 fold
- increase in IL-10 mRNA levels compared to only adherence stimulated MØ ([3]; Hsp 27 2 μg/ml, 8-9 hrs): ~7.2 fold
- persistence of p38 MAPK activation (p38 MAPK): up to 180 min
- time at which p38 MAPK phosphorylation was clearly increased (p38 MAPK): 20 min
- time of maximal stimulation of p38 MAPK (p38 MAPK): 40 min
- time at which Erk 1/2 phosphorylation was clearly increased (p44/42 (Erk 1/2)): 20 min
- time of maximal stimulation of Erk 1/2 (p44/42 (Erk 1/2)): 40 min
- time at which JNK 1/2 phosphorylation was clearly increased (p46/54 (SAPK/JNK-1/2); [4]): 20 min
- time of maximal stimulation of JNK 1/2 (p46/54 (SAPK/JNK-1/2); [4]): 40 min
- induction of P-p54 JNK (p46/54 (SAPK/JNK-1/2); compared to activation of p38 and Erk): only minimal
- MAPKAPKinase-2 activity versus adherence stimulated untreated MØ lysate (MAPKAPKinase-2): significantly increased
- effect on differentiation of MØ to dendritic cells promoted by IL-4 plus GM-CSF (MØ): inhibited
- effect on maturation of immature DC to mature antigen-presenting DC (immature dendritic cells; Hsp27 added after initial differentiation into DC (day 4 of induction)): strongly promoted
- time at which dendritic cell maturation is detectable (immature dendritic cells; after initiation of Hsp27 treatment): ≥ 24 h

Compound: COc1cccc(-c2cc(=O)c3ccccc3o2)c1N [PD98059, reference compound]
- effect on Hsp 27 induced MØ IL-10 production (human MØ [1]): did not have any inhibitory effect
- TNFα induced by Hsp 27 blocked (human MØ [2]; inhibitor 10 μM for 2 hrs before Hsp 27 2 μg/ml): 68%

Compound: polymyxin B [reference compound]
- effect on Hsp 27 induced MØ IL-10 production (human MØ [1]; polymyxin B 200 U/ml together with Hsp 27 2 μg/ml): could not inhibit

Compound: C[S+]([O-])c1ccc(-c2nc(-c3ccncc3)c(-c3ccc(F)cc3)[nH]2)cc1 (centres unmarked) [SB203580, reference compound]
- inhibition of Hsp 27 induced MØ IL-10 production (human MØ [1]): approximately 80%
- TNFα induced by Hsp 27 blocked (human MØ [2]): 90%

Compound: TNFα
- increase in IL-10 levels (human MØ [1]; exogenous addition of 100 U/ml TNFα): 1.5 fold
